Among the data in PubChem BioAssay AID2048 (NMMLSC, 2009) are EC50 values, retold here.

SMILES strings stand for the structures. Activity calls are given as the source filed them.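 Rule for the calls: active = EC50 at most 30 µM plus a dose-response curve spanning at least 25% response; inactive = the rest.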

The test has as its target Ras-related C3 botulinum toxin substrate 1 (Homo sapiens) (UniProt P63000). The test is described as follows: activated mutant Rac1 GTP binding inhibitors, SAR follow-up, biochemical, pyrazoline analogs, multiplex bead flow cytometry (AID 2048). As to conditions: Bead-based flow cytometry, Bodipy-FL-GTP binding to GST-Rac1. On the technique in general: In flow cytometry, cells or beads pass a laser one at a time.

As to `Clc1cccc(N2N=C(c3ccccc3)CC2c2ccccc2)c1` (stereo not drawn), the EC50 result was “inactive”.
As to `COc1ccc(C2CC(c3ccccc3)=NN2c2ccc(Cl)c(C(=O)O)c2)cc1` (stereo not drawn), the EC50 result is “inactive”.
For `COc1ccc(C2CC(c3ccccc3F)=NN2c2ccc(S(N)(=O)=O)cc2)cc1` (stereo not drawn), the EC50 entry was “inactive”.
`COc1ccc(C2CC(c3cccc(Cl)c3)=NN2c2ccc(S(N)(=O)=O)cc2)cc1` (stereo not drawn): the EC50 entry was “inactive”.
Take `COc1ccc(C2CC(c3cccnc3)=NN2c2ccc(S(N)(=O)=O)cc2)cc1` (stereo not drawn): the EC50 result was “inactive”.
As for `CN(C)c1ccc(C2CC(c3ccc(Cl)cc3)=NN2c2ccccc2)cc1` (stereo not drawn), the entry is “inactive”; as for `O=[N+]([O-])c1ccc(N2N=C(c3ccccc3)CC2c2ccc(O)cc2)cc1` (stereo not drawn), “inactive”; as for `Cc1cccc(N2N=C(c3ccccc3)CC2c2ccccc2)c1` (stereo not drawn), “inactive”.
